Results published in patent publication US20100298141A1, “SUBSTITUTED PYRIDINE N-OXIDE HERBICIDES” (E. I. DU PONT DE NEMOURS AND COMPANY, priority 2007, published 2010).

Assays:
[1] = test system: common (oilseed) sunflower; assay: Test C pre-/postemergence test; assay type: in vivo, Helianthus annuus
Method in brief: (§1)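 Compounds in a non-phytotoxic solvent with surfactant applied preemergence to seeded pots and, at the same time, postemergence to plants 2–18 cm tall (1- to 4-leaf stage). Paddy tests: pots flooded to 3 cm, compound applied into the water, depth held throughout.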

[2] = test system: Goosegrass; assay: Test C pre-/postemergence test; assay type: in vivo, Eleusin indica
Method in brief: as §1

[3] = test system: wheat; assay: Test A pre-/postemergence greenhouse test; assay type: in vivo, Triticum aestivum; conditions: for Wheat plant response rating: 0 to 100 scale; for Plant response rating, Wheat: 0 to 100 scale where 0 is no effect and 100 is complete control
Method in brief: (§2)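 Two application timings were run side by side in the greenhouse. Before emergence, compound went onto the soil surface of loam–sand pots as a directed spray; after emergence, plants at 2–10 cm and the one- to two-leaf stage were treated. Visual injury versus controls was rated at approximately day ten.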

[4] = test system: crabgrass; assay: Test C pre-/postemergence test; assay type: in vivo, Digitaria sanguinalis
Method in brief: as §1

[5] = test system: corn; assay: Test A pre-/postemergence greenhouse test; assay type: in vivo, Zea mays; conditions: for Corn plant response rating: 0 to 100 scale; for Plant response rating, Corn: 0 to 100 scale where 0 is no effect and 100 is complete control
Method in brief: as §2

[6] = test system: barnyardgrass; assay: Test A pre-/postemergence greenhouse test; assay type: in vivo, Echinochloa crus-galli; conditions: for Barnyardgrass plant response rating: 0 to 100 scale; for Plant response rating, Barnyardgrass: 0 to 100 scale where 0 is no effect and 100 is complete control
Method in brief: as §2

[7] = test system: eastern black nightshade; assay: Test C pre-/postemergence test; assay type: in vivo, Solanum ptycanthum
Method in brief: as §1

[8] = test system: Surinam grass; assay: Test C pre-/postemergence test; assay type: in vivo, Brachiaria decumbens
Method in brief: as §1

[9] = test system: rice; assay: Test C flooded paddy test; assay type: in vivo, Oryza sativa; conditions: Flood
Method in brief: (§3)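 Test compounds are applied straight into paddy water held 3 cm above the soil surface, with that flood maintained for the whole test. After 13 to 15 days in the greenhouse, each species is scored visually relative to controls.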

[10] = test system: bermudagrass; assay: Test C pre-/postemergence test; assay type: in vivo, Cynodon dactylon
Method in brief: as §1

[11] = test system: lambsquarters; assay: Test C pre-/postemergence test; assay type: in vivo, Chenopodium album
Method in brief: as §1

[12] = test system: giant foxtail; assay: Test A pre-/postemergence greenhouse test; assay type: in vivo, Setaria faberi; conditions: for Foxtail, Giant plant response rating: 0 to 100 scale; for Plant response rating, Foxtail, Giant: 0 to 100 scale where 0 is no effect and 100 is complete control
Method in brief: as §2

[13] = test system: wheat; assay: Test C pre-/postemergence test; assay type: in vivo, Triticum aestivum
Method in brief: as §1

[14] = test system: pigweed; assay: Test C pre-/postemergence test; assay type: in vivo, Amaranthus retroflexus
Method in brief: as §1

[15] = test system: redroot pigweed; assay: Test A pre-/postemergence greenhouse test; assay type: in vivo, Amaranthus retroflexus; conditions: for Pigweed plant response rating: 0 to 100 scale; for Plant response rating, Pigweed: 0 to 100 scale where 0 is no effect and 100 is complete control
Method in brief: as §2

[16] = test system: morningglory; assay: Test A pre-/postemergence greenhouse test; assay type: in vivo, Ipomoea spp.; conditions: for Morningglory plant response rating: 0 to 100 scale; for Plant response rating, Morningglory: 0 to 100 scale where 0 is no effect and 100 is complete control
Method in brief: as §2

[17] = test system: umbrella sedge; assay: Test C flooded paddy test; assay type: in vivo, Cyperus difformis; conditions: Flood
Method in brief: as §3

[18] = 62 g ai/ha, preemergence, scale 0 (no effect) to 100 (complete control)
[19] = preemergence, 125 g ai/ha, scale 0 (no effect) to 100 (complete control)
[20] = 31 g ai/ha, Preemergence, scale 0 to 100
[21] = Postemergence, 125 g ai/ha, 0 is no effect, 100 is complete control
[22] = Postemergence, 500 g ai/ha, 0 is no effect, 100 is complete control
[23] = Preemergence, 125 g ai/ha, 0 no effect, 100 complete control
[24] = 31 g ai/ha, scale 0 to 100 (0 no effect, 100 complete control)
[25] = 62 g ai/ha, scale 0 to 100, 0 no effect, 100 complete control, 13 to 15 days
[26] = 125 g ai/ha, scale 0 to 100, 0 no effect, 100 complete control, 13 to 15 days
[27] = 250 g ai/ha, scale 0 to 100 (0 no effect, 100 complete control)
[28] = 62 g ai/ha, Preemergence, scale 0 to 100
[29] = 125 g ai/ha, preemergence, scale 0 (no effect) to 100 (complete control)
[30] = Preemergence, 31 g ai/ha, scale 0 to 100 (0 no effect, 100 complete control)
[31] = preemergence, 250 g ai/ha, scale 0 (no effect) to 100 (complete control)
[32] = 62 g ai/ha, scale 0 to 100 (0 no effect, 100 complete control)
[33] = 250 g ai/ha, scale 0 to 100, 0 no effect, 100 complete control, 13 to 15 days

Cn1nc(C(F)(F)F)c(C(Cl)S(=O)(=O)c2cccc[n+]2[O-])c1Cl (stereo not shown) [Compound 12]
Sunflower plant response rating [1, 18]: 0 | Plant response rating (0 to 100), Sunflower ([1]; Preemergence, 250 g ai/ha): 20 | Sunflower plant response rating [1, 19]: 0 | Goosegrass plant response rating [2, 20]: 100 | Goosegrass plant response rating [2, 18]: 100 | Plant response rating (0 to 100), Goosegrass ([2]; Preemergence, 250 g ai/ha): 100 | Goosegrass plant response rating [2, 19]: 100 | Wheat plant response rating [3, 21]: 0 | Wheat plant response rating [3, 22]: 40 | Wheat plant response rating [3, 23]: 0 | Plant response rating, Wheat ([3]; Preemergence, 500 g ai/ha): 30 | Crabgrass, Large plant response rating [4, 20]: 100 | Crabgrass, Large plant response rating [4, 18]: 100 | Plant response rating (0 to 100), Crabgrass, Large ([4]; Preemergence, 250 g ai/ha): 100 | Crabgrass, Large plant response rating [4, 19]: 100 | Corn plant response rating [5, 21]: 0 | Corn plant response rating [5, 22]: 0 | Corn plant response rating [5, 23]: 0 | Plant response rating, Corn ([5]; Preemergence, 500 g ai/ha): 30 | Barnyardgrass plant response rating [6, 21]: 50 | Barnyardgrass plant response rating [6, 22]: 60 | Barnyardgrass plant response rating [6, 23]: 90 | Plant response rating, Barnyardgrass ([6]; Preemergence, 500 g ai/ha): 90 | Nightshade plant response rating [7, 20]: 100 | Nightshade plant response rating [7, 18]: 100 | Plant response rating (0 to 100), Nightshade ([7]; Preemergence, 250 g ai/ha): 100 | Nightshade plant response rating [7, 19]: 100 | Surinam Grass plant response rating [8, 18]: 0 | Plant response rating (0 to 100), Surinam Grass ([8]; Preemergence, 250 g ai/ha): 40 | Surinam Grass plant response rating [8, 19]: 30 | Plant response rating, Rice [9, 24]: 60 | Plant response rating, Rice [9, 25]: 60 | Plant response rating, Rice [9, 26]: 70 | Plant response rating, Rice [9, 27]: 80 | Bermudagrass plant response rating [10, 20]: 100 | Bermudagrass plant response rating [10, 18]: 100 | Plant response rating (0 to 100), Bermudagrass ([10]; Preemergence, 250 g ai/ha): 100 | Bermudagrass plant response rating [10, 19]: 100 | Lambsquarters plant response rating [11, 20]: 0 | Lambsquarters plant response rating [11, 18]: 100 | Plant response rating (0 to 100), Lambsquarters ([11]; Preemergence, 250 g ai/ha): 100 | Lambsquarters plant response rating [11, 19]: 100 | Foxtail, Giant plant response rating [12, 21]: 50 | Foxtail, Giant plant response rating [12, 22]: 70 | Foxtail, Giant plant response rating [12, 23]: 80 | Plant response rating, Foxtail, Giant ([12]; Preemergence, 500 g ai/ha): 100 | Wheat plant response rating [13, 18]: 0 | Plant response rating (0 to 100), Wheat ([13]; Preemergence, 250 g ai/ha): 20 | Wheat plant response rating [13, 19]: 0 | Pigweed plant response rating [14, 20]: 100 | Pigweed plant response rating [14, 18]: 100 | Plant response rating (0 to 100), Pigweed ([14]; Preemergence, 250 g ai/ha): 100 | Pigweed plant response rating [14, 19]: 100 | Pigweed plant response rating [15, 21]: 0 | Pigweed plant response rating [15, 22]: 0 | Morningglory plant response rating [16, 21]: 20 | Morningglory plant response rating [16, 22]: 30 | Morningglory plant response rating [16, 23]: 0 | Plant response rating, Morningglory ([16]; Preemergence, 500 g ai/ha): 60 | Plant response rating, Sedge, Umbrella [17, 24]: 90 | Plant response rating, Sedge, Umbrella [17, 25]: 95 | Plant response rating, Sedge, Umbrella [17, 26]: 100 | Plant response rating, Sedge, Umbrella [17, 27]: 100

Cc1cc[n+]([O-])c(S(=O)(=O)Cc2c(C(F)(F)F)nn(C)c2OCC(F)F)c1 [Compound 94]
Sunflower plant response rating [1, 28]: 0 | Sunflower plant response rating [1, 29]: 45 | Plant response rating, Sunflower [1, 30]: 0 | Sunflower plant response rating [1, 31]: 80 | Goosegrass plant response rating [2, 28]: 100 | Goosegrass plant response rating [2, 29]: 100 | Plant response rating, Goosegrass [2, 30]: 95 | Goosegrass plant response rating [2, 31]: 100 | Plant response rating, Wheat ([3]; Postemergence, 125 g ai/ha): 60 | Wheat plant response rating [3, 22]: 80 | Wheat plant response rating [3, 23]: 40 | Wheat plant response rating ([3]; Preemergence, 500 g ai/ha, 0 no effect, 100 complete control): 90 | Crabgrass, Large plant response rating [4, 28]: 98 | Crabgrass, Large plant response rating [4, 29]: 100 | Plant response rating, Crabgrass, Large [4, 30]: 20 | Crabgrass, Large plant response rating [4, 31]: 100 | Plant response rating, Corn ([5]; Postemergence, 125 g ai/ha): 40 | Corn plant response rating [5, 22]: 80 | Corn plant response rating [5, 23]: 20 | Plant response rating, Corn ([5]; Preemergence, 500 g ai/ha): 70 | Plant response rating, Barnyardgrass ([6]; Postemergence, 125 g ai/ha): 60 | Barnyardgrass plant response rating [6, 22]: 90 | Barnyardgrass plant response rating [6, 23]: 70 | Plant response rating, Barnyardgrass ([6]; Preemergence, 500 g ai/ha): 100 | Nightshade plant response rating [7, 28]: 55 | Nightshade plant response rating [7, 29]: 100 | Plant response rating, Nightshade [7, 30]: 50 | Nightshade plant response rating [7, 31]: 100 | Surinam Grass plant response rating [8, 28]: 90 | Surinam Grass plant response rating [8, 29]: 90 | Plant response rating, Surinam Grass [8, 30]: 90 | Surinam Grass plant response rating [8, 31]: 100 | Plant response rating, Rice [9, 32]: 0 | Plant response rating, Rice [9, 33]: 20 | Bermudagrass plant response rating ([10]; 62 g ai/ha, Preemergence, scale 0 to 100 (0 no effect, 100 complete control)): 100 | Bermudagrass plant response rating [10, 29]: 100 | Plant response rating, Bermudagrass [10, 30]: 90 | Bermudagrass plant response rating [10, 31]: 100 | Lambsquarters plant response rating [11, 28]: 90 | Lambsquarters plant response rating [11, 29]: 100 | Plant response rating, Lambsquarters [11, 30]: 90 | Lambsquarters plant response rating [11, 31]: 100 | Plant response rating, Foxtail, Giant ([12]; Postemergence, 125 g ai/ha): 50 | Foxtail, Giant plant response rating [12, 22]: 80 | Foxtail, Giant plant response rating [12, 23]: 100 | Plant response rating, Foxtail, Giant ([12]; Preemergence, 500 g ai/ha): 100 | Wheat plant response rating [13, 28]: 60 | Wheat plant response rating [13, 29]: 80 | Plant response rating, Wheat [13, 30]: 30 | Wheat plant response rating [13, 31]: 80 | Pigweed plant response rating [14, 28]: 90 | Pigweed plant response rating [14, 29]: 100 | Plant response rating, Pigweed [14, 30]: 60 | Pigweed plant response rating [14, 31]: 100 | Plant response rating, Pigweed ([15]; Postemergence, 125 g ai/ha): 60 | Pigweed plant response rating [15, 22]: 80 | Pigweed plant response rating [15, 23]: 100 | Plant response rating, Pigweed ([15]; Preemergence, 500 g ai/ha): 100 | Plant response rating, Morningglory ([16]; Postemergence, 125 g ai/ha): 50 | Morningglory plant response rating [16, 22]: 60 | Morningglory plant response rating [16, 23]: 50 | Plant response rating, Morningglory ([16]; Preemergence, 500 g ai/ha): 100 | Plant response rating, Sedge, Umbrella [17, 32]: 0 | Plant response rating, Sedge, Umbrella [17, 33]: 90
